The term IC50 denotes the midpoint of a concentration-inhibition curve.

This note sets out measurements from patent publication US9750748B2, “Pyridazinones as DAAO enzyme inhibitors” (TAKEDA PHARMACEUTICAL COMPANY LIMITED, priority 2012, dated 2017).

In the test the target is Human DAAO enzyme (Homo sapiens (Human), UniProt P14920). Briefly: In Vitro DAAO Enzyme Assay (Amplex Red detection of H2O2 from D-Serine). In kind it is biochemical. Particulars: inhibition of DAAO activity in the presence of 10 mM D-Serine; 60 minutes at 25° C. How it is done: In Vitro DAAO Enzyme Assay
The functional activity of compounds inhibiting the DAAO enzyme was determined by utilizing the co-product of the catalysis of D-Serine, H2O2, which can be quantitatively measured using the ‘Amplex’ (trade mark) Red (Invitrogen) detection. ‘Amplex’ Red reagent is a colorless substrate that reacts with hydrogen peroxide (H2O2) with a 1:1 stoichiometry to produce highly fluorescent resorufin (excitation/emission maxima=570/585 nm).
The Km of D-Serine was measured for each enzyme batch to maintain consistency; this Km was used in subsequent assays.
On the day of the assay compounds were serially diluted in DMSO before being diluted 1:20 with assay buffer (20 mM Tris ph 7.4). […] Finally 5 μl ‘Amplex’ red reagent (Invitrogen) was added to all wells as per manufacturer's protocol. The plate was incubated for 60 minutes in the dark at 25° C. and the fluorescence in each well was measured in the Envision plate reader.
Concentration response curves were generated using the average of duplicate wells for each data point and analyzed using non-linear regression and four parameter curve fit.

Human DAAO enzyme, sequence (P14920 whole entry): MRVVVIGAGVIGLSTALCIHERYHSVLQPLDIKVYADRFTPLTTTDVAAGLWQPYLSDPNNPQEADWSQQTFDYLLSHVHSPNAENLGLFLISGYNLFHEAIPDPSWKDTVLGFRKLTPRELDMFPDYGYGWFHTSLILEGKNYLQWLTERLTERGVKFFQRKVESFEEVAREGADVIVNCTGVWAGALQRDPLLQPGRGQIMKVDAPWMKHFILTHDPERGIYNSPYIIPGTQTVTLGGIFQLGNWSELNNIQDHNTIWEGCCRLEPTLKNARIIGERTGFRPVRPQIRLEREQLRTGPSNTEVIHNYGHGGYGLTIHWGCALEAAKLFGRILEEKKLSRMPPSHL

Consider `O=c1[nH]nc(C2CCCC2)cc1O` [Example 6, 6-Cyclopentyl-4-hydroxypyridazin-3(2H)-one], for which the concentration for half-maximal inhibition (IC50) is 670 nM.

For the molecule `CN(C)c1cc(O)c(=O)[nH]n1` [Example 10, 6-(Dimethylamino)-4-hydroxypyridazin-3(2H)-one], the IC50 stood at 46 nM. Under `O=c1[nH]nc(N2CCC2)cc1O` [Example 9, 6-(Azetidin-1-yl)-4-hydroxypyridazin-3(2H)-one] stands 2500 nM; under `O=c1[nH]nc(C2CCOCC2)cc1O` [Example 4, 4-Hydroxy-6-(tetrahydro-2H-pyran-4-yl)pyridazin-3(2H)-one], 4100 nM. Then `CC(C)CCc1cc(O)c(=O)[nH]n1` [Example 2, 4-Hydroxy-6-(3-methylbutyl)pyridazin-3(2H)-one], with 61 nM; and `CCc1cc(O)c(=O)[nH]n1` [Example 1, 6-Ethyl-4-hydroxypyridazin-3(2H)-one], with 11 nM. `O=c1[nH]nc(C2CCCCC2)cc1O` [Example 7, 6-Cyclohexyl-4-hydroxypyridazin-3(2H)-one]: the IC50 was 1100 nM.

Take `CCN(C)c1cc(O)c(=O)[nH]n1` [Example 12, 6-(Ethyl(methyl)amino)-4-hydroxypyridazin-3(2H)-one]: the IC50 was found to be 150 nM. Under `O=c1[nH]nc(C2CC2)cc1O` [Example 3, 6-Cyclopropyl-4-hydroxypyridazin-3(2H)-one] stands 40 nM; under `CC(C)c1cc(O)c(=O)[nH]n1` [Example 8, 4-Hydroxy-6-isopropylpyridazin-3(2H)-one], 36 nM; under `CCCN(C)c1cc(O)c(=O)[nH]n1` [Example 11, 4-Hydroxy-6-(methyl(propyl)amino)pyridazin-3(2H)-one], 180 nM.

In the case of `CC(C)Cc1cc(O)c(=O)[nH]n1` [Example 5, 4-Hydroxy-6-(2-methylpropyl)pyridazin-3(2H)-one], the concentration for half-maximal inhibition (IC50) is 140 nM. Then `CC(C)(C)c1cc(O)c(=O)[nH]n1` [Example 14, 6-tert-Butyl-4-hydroxypyridazin-3(2H)-one], with 44 nM; and `O=c1[nH]nc(N2CCCCC2)cc1O` [Example 13, 4-Hydroxy-6-(piperidin-1-yl)pyridazin-3(2H)-one], with 3600 nM.
